pIC50: −log10 of the molar value.
Key:
[1] = test system: Ptch+/−Hic+/− medulloblastoma allograft; assay: Ptch+/−Hic+/− medulloblastoma allograft model, continuous dosing; assay type: in vivo, mouse; details: day 47
Excerpt: (§1) Mouse medulloblastoma cells (1.0−5.0×10^6), dissociated directly from tumor fragments originally derived from spontaneously arising medulloblastomas in Ptch+/−p53−/−, Ptch+/−Hic+/− or Ptch+/− mice, were inoculated subcutaneously into the right flank of Harlan nu/nu mice. Treatment was initiated approximately 7-10 days post implantation. Animals were randomized into treatment groups with similar mean tumor volumes that ranged from approximately 250-300 mm3. Tumor volumes (mm3) and body weights (g) were recorded two or three times per week from all groups for analysis. Dose was body weight adjusted at time of dosing. Comparisons between treatment groups was performed using a non-parametric Kruskal-Wallis/Wilcoxon Rank Sum Test.
(§2) Tumors were calipered in two dimensions, and the volumes were calculated using the formula: (length×width2)/2, where length is the longer of the two measurements and width is the shorter one. Percent treatment/control (% T/C) values were calculated using the following formula: % T/C=100×ΔTf−i/ΔCf−i if ΔTf−i>0, % T/T0=100×ΔTf−i/T0 if ΔTf−i<0 (regression). A partial responder (PR) was defined as an animal whose tumor was less than 50% of the initial tumor volume by the end of the study. An animal with no palpable tumor by the end of study is defined as a complete responder (CR).
Treatments started on day 7 post implantation (5 million cells/animal). Compound 1 was administered po at 5 mg/kg bid, 10 mg/kg bid, 20 mg/kg qd, 20 mg/kg bid, 40 mg/kg bid and 80 mg/kg bid for the length of study. Compound 2 was administered at 100 mg/kg bid for the length of study. Vehicle control of Compound 1 was 0.5% methylcellulose 0.5% Tween 80 in water. The initial group size consisted of 8 animals. The vehicle group was taken down 10 days after treatment (tumors greater than 10% of mouse body weight).
Sustained regressions listed in the Table 1 represent number of complete responses still present at the end of study on day 47.
Two additional Smo inhibitors, Compound 3 and Compound 4 were evaluated in follow-up studies in the Ptch+/−Hic+/− model upon continous dosing.

[2] = test system: Ptch+/− medulloblastoma allograft; assay: Ptch+/− medulloblastoma allograft model, continuous dosing; assay type: in vivo, mouse; details: day 48
Excerpt: as §1, §2
Treatments started on day 7 post implantation (5 million cells/animal). Compound 1 was administered po at 10 mg/kg qd, 20 mg/kg qd, 40 mg/kg qd, 80 mg/kg qd and 160 mg/kg qd for the length of study. Compound 2 was administered at 100 mg/kg bid for the length of study. Vehicle control of Compound 1 was 0.5% methylcellulose 0.5% Tween 80 in water. The initial group size consisted of 8 animals. The vehicle group was taken down 7 days after treatment (tumors greater than 10% of mouse body weight). Similar resistance was seen to that observed with the Ptc+/−Hic+/− model, with a subset of the complete responders growing back and others showing complete regression (Table 2). Sustained regression listed in Table 2 represent number of complete regressions still present at the end of study on day 48.

[3] = test system: sensitive medulloblastoma tumor cells; assay: ex-vivo medulloblastoma proliferation assay (3H thymidine, 48 h), sensitive tumor cells; assay type: cell-based; details: Mus musculus
Experimental: (§3) The effect of statins (e.g., simvastatin, flustatin) on the proliferation of medulloblastoma cells derived from sensitive and resistant Ptch+/− cells was evaluated by using an “ex-vivo medulloblastoma proliferation assay.” Using Ptch+/−p53−/−, Ptch+/−Hic+/− or Ptch+/− medulloblastoma tumors freshly harvested from allografted nude mice, we have developed a short-term 48 h proliferation assay that enables us to assess the in vitro potency of Smo inhibitors. The read-out for proliferation uses incorporation of 3H thymidine. The assay reflects the in vivo sensitivity of tumor cells to Compound 1.
(§4) The effect of PI3K inhibitors (e.g., compounds such as Compound A) on the proliferation of medulloblastoma cells derived from sensitive and resistant medulloblastoma cells was evaluated by using an “ex-vivo medulloblastoma proliferation assay,” as described above.

[4] = test system: resistant medulloblastoma tumor cells; assay: ex-vivo medulloblastoma proliferation assay (3H thymidine, 48 h), resistant tumor cells; assay type: cell-based, mouse; details: Mus musculus
Experimental: as §3, §4

[5] = test system: Hedgehog signaling pathway genes; assay: Affymetrix mRNA profiling of tumors, Hedgehog pathway genes; assay type: in vivo, mouse
Experimental: (§5) In order to characterize changes in gene expression in sensitive tumors compared to resistant tumors (both of which terms are defined herein), RNA was isolated from sensitive tumors treated with vehicle or Compound 1 for 4 (single dose), 16 (single dose) and 48 hours (three doses) as well as from resistant tumors (that initially had regressed in the presence of Compound 1 (day 13) but then regrew in the presence of drug as described above). Three tumors were analyzed per treatment group: The sensitive tumor group comprises tumors treated with 20 mg/kg of Compound 1 for 4 hours; 16 hours; and 48 hours. The resistant tumor group comprises tumors treated with 10 mg/kg bid and 80 mg/kg bid of Compound 1 for 26 days. mRNA expression in tumor samples was analyzed by Affymetrix profiling. The expression data were analyzed using the GeneGo pathway program, which groups data according to signal transduction pathways.

[6] = test system: Cholesterol biosynthesis pathway genes; assay: Affymetrix mRNA profiling of tumors, cholesterol biosynthesis genes; assay type: in vivo, mouse; details: sensitive and resistant tumors
Experimental: as §5

PI3K pathway genes = assay: Affymetrix mRNA profiling of tumors, PI3K pathway genes; assay type: in vivo, mouse
Experimental: as §5

[7] = test system: Ptch+/−Hic+/− medulloblastoma allograft; assay: combination of Smo inhibitor and PI3K inhibitor in Ptch+/−Hic+/− medulloblastoma allograft model; assay type: in vivo, mouse
Excerpt: Mouse medulloblastoma cells (1.0-5.0×10^6), dissociated directly from tumor fragments originally derived from spontaneously arising medulloblastomas in Ptch+/-p53-/-, Ptch+/-Hic+/- or Ptch+/- mice, were inoculated subcutaneously into the right flank of Harlan nu/nu mice. Treatment was initiated approximately 7-10 days post implantation. Animals were randomized into treatment groups with similar mean tumor volumes that ranged from approximately 250-300 mm3. Tumor volumes (mm3) and body weights (g) were recorded two or three times per week from all groups for analysis. Dose was body weight adjusted at time of dosing. Comparisons between treatment groups was performed using a non-parametric Kruskal-Wallis/Wilcoxon Rank Sum Test. Tumors were calipered in two dimensions, and the volumes were calculated using the formula: (length×width2)/2, where length is the longer of the two measurements and width is the shorter one. […] A partial responder (PR) was defined as an animal whose tumor was less than 50% of the initial tumor volume by the end of the study. An animal with no palpable tumor by the end of study is defined as a complete responder (CR). Next, a combination of Compound 1 and Compound A was explored in the Ptch+/-Hic+/- medulloblastoma allograft model. […] Animals treated with vehicle control and with compound A had to be sacrificed around day 20 and 25, respectively, because their tumor volume reached 1500 mm3. […] Similar results were obtained for animals treated with Compound 1 alone for the first 10 days, followed by single agent treatment with Compound A (data not shown). […] Next, a combination of Compound 1 and Compound B was explored in the Ptch+/-Hic+/- medulloblastoma allograft model. […] Animals treated with vehicle control and with compound B reached the endpoint around day 12 to 15, respectively, because their tumor volume reached 700 mm3.

pIC50 ([3]; Sensitive tumor, Table 3): 8.52 | pIC50 ([3]; ptch+/− Hic+/−, sensitive, Table 4): 8.70 | pIC50 ([3]; sensitive cells, summary of Table 4): 8.40 to 8.70 | pIC50 ([3]; sensitive tumor cells, text b482): 8.40 | pIC50 ([4]; Resistant tumor, Table 3): < 4.70 | pIC50 ([4]; ptch+/− Hic+/−, Resistant, Table 4): < 4.70 | pIC50 ([4]; resistant tumors, summary of Table 4): < 4.70 | pIC50 ([4]; resistant tumors, text b482): < 4.70
Structure (SMILES): Cc1c(C(=O)Nc2ccc(N3C[C@@H](C)O[C@@H](C)C3)nc2)cccc1-c1ccc(OC(F)(F)F)cc1 [Compound 1, 2-Methyl-4′-trifluoromethoxy-biphenyl-3-carboxylic acid [6-(cis-2,6-dimethyl-morpholin-4-yl)-pyridin-3-yl]-amide]
sustained regressions (complete responses still present at end of study) ([1]; 5 mg/kg bid po): 0/8 | sustained regressions (complete responses still present at end of study) ([1]; 10 mg/kg bid po): 1/8 | sustained regressions (complete responses still present at end of study) ([1]; 20 mg/kg bid po): 7/8 | sustained regressions (complete responses still present at end of study) ([1]; 20 mg/kg qd po): 0/8 | sustained regressions (complete responses still present at end of study) ([1]; 40 mg/kg bid po): 3/8 | sustained regressions (complete responses still present at end of study) ([1]; 80 mg/kg bid po): 6/8 | sustained regressions (complete regressions still present at end of study) ([2]; 10 mg/kg qd po): 0/8 | sustained regressions (complete regressions still present at end of study) ([2]; 20 mg/kg qd po): 1/8 | sustained regressions (complete regressions still present at end of study) ([2]; 40 mg/kg qd po): 1/8 | sustained regressions (complete regressions still present at end of study) ([2]; 80 mg/kg qd po): 4/8 | sustained regressions (complete regressions still present at end of study) ([2]; 160 mg/kg qd po): 5/8 | expression of Hedgehog pathway genes ([5]; resistant tumors, 10 and 80 mg/kg bid, 26 days): no longer sufficiently inhibited the expression of Hedgehog pathway genes | expression of genes indicative of Hedgehog signaling pathway activity ([5]; sensitive tumors, 20 mg/kg, 4 h, 16 h, 48 h): suppressed in sensitive tumors in a time-dependent manner | expression of genes of the Cholesterol biosynthesis pathway [6]: A similar expression pattern was observed | PI3K pathway activity (gene expression) (PI3K pathway genes; resistant tumors compared to sensitive tumors): upregulation of PI3K pathway activity was observed in resistant tumors | expression of genes indicative of PI3K pathway activity (PI3K pathway genes; sensitive tumors, 4, 16 and 48 h): No changes in gene expression were detected | effect on tumor growth ([7]; 40 mg/kg qd, FIG. 6A): initially induced regression but tumors started to regrow | time to endpoint (tumor volume >1500 mm3) ([7]; 40 mg/kg qd, FIG. 6B): significantly prolonged | effect on tumor growth ([7]; 80 mg/kg qd, FIG. 7A): initially induced regression but tumors started to regrow | time to endpoint (tumor volume >700 mm3) ([7]; 80 mg/kg qd, FIG. 7B): significantly prolonged

Source: patent US8778927B2, “Smoothened antagonism for the treatment of hedgehog pathway-related disorders” (Novartis AG, priority 2008, dated 2014)
